# Reference: patent US6664271B1, “Immunopotentiator agents” (Eli Lilly and Company, priority 1999, dated 2003)
# Marks after values point to notes of the source that are not given here.
# Experiments:
# E. coli 19B = assay: bacterial clearance of E. coli from peripheral blood of neonatal chicks (Example 77); format: in vivo, chick; details: single subcutaneous injection of 25 μg, E. coli challenge, blood 14-18 hours post-challenge
# Description: The compounds of Example 15 ((S)-ethyl 1-benzoyl-3-piperidinecarboxylate), Example 29 (1-benzoyl-3-butyrylpiperidine), Example 30 ((S)-ethyl 1-(2-thiopheneacetyl)-3-piperidinecarboxylate) and Example 68 ((S)-ethyl 1-benzyl-3-piperidinecarboxylate 1-methiodide), respectively, were tested to determine whether a single subcutaneous injection enhanced the bacterial clearance of E. coli from the peripheral blood of neonatal chicks. Bacterial clearance is a measurement of cell-mediated immunity, specifically, phagocyte function, in animals. An approved Animal Care and Use Committee protocol governed the activity in this experiment.
# 1 ml syringes with 21 g 1″ needles (Becton Dickinson and Company Franklin Lakes, N.J. 07417-1884); 1 ml syringe with 25 g ⅝″ needles (Becton Dickinson and Company Franklin Lakes, N.J. 07417-1884); EMB agar plates (Difco Laboratories, Becton Dickinson Microbiology Systems, Sparks, Md. 21152); Culture tubes (14 ml polystyrene round bottom, Becton Dickinson Labware, Franklin Lakes, N.J. 07417-1886); Dulbecco's Phosphate Buffered Saline w/o Mg^++ or Ca^++ (Gibco BRL, Life Technologies Rockville, Md. 20850). Peterson x Hubbard male chicks (day of hatch from a commercial hatchery) were utilized
# 160 chicks were divided into 6 groups: Group 1=Controls (acetate-buffered saline vehicle); Group 2=Compound of Example 15 ((S)-ethyl 1-benzoyl-3-piperidinecarboxylate); Group 3=Compound of Example 29 (1-benzoyl-3-butyrylpiperidine); Group 4=Compound of Example 30 ((S)-ethyl 1-(2-thiopheneacetyl)-3-piperidinecarboxylate); Group 5=Compound of Example 68 ((S)-ethyl 1-benzyl-3-piperidinecarboxylate 1-methiodide); and Group 6=environmental controls. Groups 1-5 contained 3 replicates of 10 chicks each and Group 6 contained 1 replicate of 10 chicks.
# Day −2 Upon arrival, day of hatch chicks were randomized (10/group), and placed in a Petersime heated brooder battery unit (Petersime Incubator Company, Gettysburg, Ohio 45328). […] All chicks were given ad libitum access to a commercially available starter feed and water.
# Day 0 11:00 AM. Five to ten colonies of E. coli 19B were selected from a fresh overnight blood agar plate (TSA II with 5% sheep blood, Becton Dickinson Microbiology Systems Cockeysville, Md. 21030) and placed into 100 ml Brain Heart Infusion broth (Difco Laboratories, Becton Dickinson Microbiology Systems Sparks, Md. 21152) in a flask. […]
# Day 5 EMB plates were removed from the incubator and bacterial colonies were counted and recorded to calculate CFU/ml/chick.
# Data was transformed to logio values, and analysis of variance was used to determine significant differences between the treatment groups and controls. Data was expressed as the percentage of enhancedbacterial clearance compared to E. coli-challenged controls. […]
# chicken leukocytes = assay: cells; format: cell-based; details: for minimal effective concentration: Gallus gallus, Leukocyte, read-out: MSC (Minimum Stimulatory Concentration); for MTC (Maximum Tolerable Concentration prior to causing cytotoxicity): Hubbard/Peterson broiler, chicken, 72 h
# Description: Various compounds of Formula I were evaluated for in vitro T-lymphocyte blastogenic activity with chicken leukocytes according to the steps described in the following procedure:
# (a) Exsanguination step. The leukocytes were obtained from 3-6 week old Hubbard/Peterson broiler chickens. Initially, the chickens were rendered unconscious in a CO2 chamber. The chickens were then exsanguinated via cardiac puncture. In the exsanguination procedure, a syringe was connected to a needle, and the needle was inserted into the area at the base of the neck under the “V” formed by the breast and sternum. After the needle was properly inserted, continuous vacuum was applied to a syringe (connected to the needle) by pulling back on the plunger. It is important to promptly carry out this withdrawal action, because there is only a 10-15 seconds time period after the blood has starting flowing into the syringe before the blood coagulates, and becomes unusable. As soon as the syringe is full (or prior to complete filling if too much time has elapsed such that the blood begins to coagulate), the whole uncoagulated blood is transferred to a tube having the anticoagulant EDTA therein. The tube is then rotated to mix the whole blood and the EDTA. Alternatively, the whole blood can be withdrawn directly into a vacuum container already having EDTA therein, rather than into a syringe.
# (b) Leukocyte isolation step. Numerous methods for isolating leukocytes from (uncoagulated) whole blood are known in the art. In a preferred method, the sterile whole blood was combined with methylcellulose (1.5:1). Any blood containing clots was discarded. The mixture was centrifuged at 30×g for ten minutes (300 rpm on Beckman GS-6R centrifuge). The top layer (leukocytes in supernatant) was decanted into a sterile 50 ml conical tube, while taking care to prevent contamination of the sample by red blood cells. The decanted layer was then centrifuged at 200×g for ten minutes (1500 rpm on the Beckman GS-6R centrifuge). The supernatant liquid was discarded, and the resulting cell “pellet” was retained.
# The cells were then washed in a solution containing 10 ml PBS (phosphate buffered saline) and Gentamycin (gentamicin sulfate) at a concentration of 50 μg/ml. This solution was centrifuged at 100×g (1000 rpm on the Beckman centrifuge) for five minutes, and the supernatant liquid was discarded. The washing step (including the centrifuging at 100×g) was repeated to ensure complete removal of the methylcellulose. The use of media such as DMEM ([…]) was avoided in the washing steps, since such media may cause agglutination of the white blood cells. Finally, the cells were then suspended in an appropriate media, such as RPMI 1640 tissue cell culture medium, supplemented with phenol red, NaHCO3, and L-Glutamide. Supplemented RPMI 1640 is available from Sigma-Aldrich Chemical Co.
# (c) Cell counting and cell viability step. The cells were counted and checked for viability using the Trypan Blue method of exclusion. 0.1 ml of the cell suspension was placed in a 4-5 ml small culture tube along with 0.7 ml HBSS (Hank's Buffered Saline Solution), available from Sigma-Aldrich, and 0.2 ml of a 0.4% solution of aqueous Trypan Blue stain, available from GIBCO BRL, of Grand Island, N.Y. The components were mixed thoroughly but gently, and allowed to sit for 5 minutes (no longer than 15 minutes). The components should not be exposed to the stain for extended periods of time, because such extended exposure may permit viable cells, as well as non-viable cells, to take up dye.
# A cover slip was placed on a Bright Line hemacytometer, available from Howser Scientific, and 10 μl of the mixture from the tube was transferred to each chamber. Non-viable cells appear blue under a microscope. The viable cells in one of the 16-square corners of the hemacytometer were then counted. […]
# E. coli = assay: colibacillosis infection model in broiler chickens, Trial A (Example 78); format: in vivo, chicken; details: 2 μg/chick subcutaneous
# [1] = chicken leukocytes, read at 72 hours
structure (smiles),measurement,setting,value
"CCOC(=O)[C@H]1CCCN(C(=O)c2ccccc2)C1 [Example 15, (S)-Ethyl 1-Benzoyl-3-piperidinecarboxylate]",% Enhanced Clearance Compared to Controls,E. coli 19B,34* %
same,minimal effective concentration,chicken leukocytes; [1],0.1 µg/mL
same,MTC (Maximum Tolerable Concentration prior to causing cytotoxicity),chicken leukocytes,10 µg/mL
"CCOC(=O)C1CCC[N@+](C)(Cc2ccccc2)C1.[I-] (stereo partly drawn) [Example 68, (S)-Ethyl 1-Benzyl-3-piperidinecarboxylate 1-methiodide]",% Enhanced Clearance Compared to Controls,E. coli 19B,50* %
same,MSC (Minimum Stimulatory Concentration),chicken leukocytes; [1],1 µg/mL
"CCOC(=O)C1CN(C(=O)NC)CCC1=O (centres unmarked) [Example 11, Ethyl 1-(N-Methylaminocarbonyl)-4-oxo-3-piperidinecarboxylate]",% Colibacillosis-associated Mortality,E. coli,14.0%
same,% Total Mortality,E. coli,16.5* %
same,Average Weight Gain/Bird,E. coli,1.40 lb (635 g)
same,Feed/Gain,E. coli,1.35
same,minimal effective concentration,chicken leukocytes; [1],0.001 µg/mL
same,MTC (Maximum Tolerable Concentration prior to causing cytotoxicity),chicken leukocytes,1 µg/mL
"CCCC(=O)C1CCCN(C(=O)c2ccccc2)C1 (centres unmarked) [Example 29, 1-Benzoyl-3-butyrylpiperidine]",% Enhanced Clearance Compared to Controls,E. coli 19B,33* %
same,minimal effective concentration,chicken leukocytes; [1],1 µg/mL
same,MTC (Maximum Tolerable Concentration prior to causing cytotoxicity),chicken leukocytes,10 µg/mL
